From patent US20090264528A1, “SERINE PALMITOYLCOA TRANSFERASE (SPT) INHIBITION BY MYRIOCIN OR GENETIC DEFICIENCY DECREASES CHOLESTEROL ABSORPTION” (The Research Foundation of State University of New York, priority 2008, published 2009)

Assays:
enterocytes = assay: Mouse enterocyte lipid measurement; format: in vivo
Description: The mechanisms responsible for decreased cholesterol absorption in myriocin-treated or Sptlc1^+/− mice were explored. First, lipid levels were measured in enterocytes isolated from myriocin-treated and Sptlc1^+/− mice, as well as controls.

[1] = Mouse plasma lipid measurement; format: in vivo; conditions: for plasma Chol (cholesterol) / plasma PC (phosphatidylcholine) / plasma SM (sphingomyelin) / plasma TG (triglycerol): mean ± SD, N=6
Description: Mice and diet: Male C57BL/6J and apoE KO (Apolipoprotien E knockout) mice with a C57BL/6J background were obtained from the Jackson Laboratory (Bar Harbor, Me.). Sptlc1 heterozygous KO mice with a C57BL/6 background were created and bred in the inventors' laboratory. Myriocin was mixed with a chow diet. Eight- to 12-week-old WT or apoE KO (n=6) mice received myriocin 0.3 mg kg^−1·d^−1 for 12 weeks. The myriocin dose was chosen from a previous dose-dependent experiment with apoE-KO mice. Controls consisted of WT or apoE KO mice fed a chow diet (n=6). Sptlc1 heterozygous KO (Sptlc1^+/−)(n=6) and WT mice were also fed a chow diet. […]
As reported previously in (25), which is incorporated by reference herein, Sptlc1^+/− and WT mice had identical plasma lipid levels (Table 1).

ABCG5 mRNA = assay: Real-time PCR, ABCG5 mRNA; format: in vivo, mouse; conditions: for increase of ABCG5 mRNA levels compared with controls: small intestine, P<0.01
Description: FIGS. 9A-F depict that Mouse small intestine and liver NPC1L1, ABCG5/G8, and ABCA1 mRNA measurements. NPC1L1, ABCG5/G8, and ABCA1 mRNA levels were measured by real-time PCR as described in “Methods and Materials.” FIG. 9A, jejunum from WT mice with or without myriocin treatment; FIG. 9B, jejunum from apoE KO mice with or without myriocin treatment; FIG. 9C, jejunum from WT and Sptlc1^+/− mice; FIG. 9D, liver from WT mice with or without myriocin treatment; FIG. 9E, liver from apoE KO mice with or without myriocin treatment; FIG. 9F, liver from WT and Sptlc1^+/− mice. Values are mean±SD, n=5. *P<0.01.
Real-time PCR examined genes' expression: Mice were sacrificed by cervical dislocation. Jejunum was dissected, and total RNA extracted with Trizol (Invitrogen). cDNA was synthesized with an Invitrogen kit. Polymerase chain reaction (PCR) was performed on a total volume of 20 microl with the sybergreen kit from Applied Biosystems, 18S being used as an internal control. The amplification program consisted of activation at 95 degrees C. for 10 minutes, followed by 40 amplification cycles: 95 degrees C. for 15 seconds, 60 degrees C. for 1 minute. Each sample was triplicated. The genes' relative expression was expressed as mean±SD. The primers are located in the below table which lists the name, sequence, and sequence identification number.
For further elucidation of the possible mechanisms for cholesterol absorption reduction in the SPT-deficient small intestine, NPC1L1, ABCG5/G8, and ABCA1 mRNA levels in myriocin-treated WT, apoE KO, and Sptlc1^+/− mice, as well as in controls were measured. […] Moreover, intestinal MTP activity was not influenced by SPT deficiency (data not shown). Also, the liver mRNA levels were measured to find that myriocin treatment or Sptlc1 deficiency has no influence on ABCG5/G8 mRNA levels […]. […] NPC1L1 mRNA in WT or Sptlc1^+/− livers were not detected (data not shown).

[2] = tested on: apical membrane SM of small intestine segments; assay: In situ lysenin treatment and cell mortality measurement (WST-1); format: cell-based, mouse; conditions: jejunum segments from myriocin-treated WT mice, 5 microg/ml lysenin, 30 minutes
Description: FIGS. 7A-B depict several graphs that illustrate that SPT deficiency decreased SM levels on the apical surface of mouse small intestine. Small intestines were turned inside-out and cut into 0.5 cm of segments from jejunum. The segments were then bathed in 0.5 ml of oxygenated DMEM containing 5% glutamine with 5 microg/ml lysenin or without it as control, at 37 degrees C. for 30 minutes. Then 0.05 ml of WST-1 cell proliferation reagent were added and continuously incubated at 37 degrees C. for 15 minutes. After incubation, solutions were transferred to an Eppendorf tube and quick-spun at maximum speed to pellet cell debris. Supernatants were read OD at 450 nm, a reading for viable cells. Background reading was the WST-1 reagent with no cell treatment. […]
In situ lysenin treatment and cell mortality measurement: Overnight-fasted mice were anesthetized and small intestines were isolated from WT animals with or without myriocin treatment, as well as sptlc1 KO and control mice. […] Supernatant was then measured OD at 450 nm, a reading for viable cells (WST-1 reagent with no cell incubation being the background reading). […]
Second, lysenin, a SM-specific cytotoxin, was used to measure apical membrane SM levels, since lysenin can recognize SM only when it forms aggregates or microdomains in the plasma membranes. […] Cell viability in tissue segments was measured by adding WST-1 cell proliferation reagent.

[3] = myriocin-treated mice vs controls

CCCCCCC(=O)CCCCCC/C=C/C[C@@H](O)[C@H](O)[C@@](N)(CO)C(=O)O [Myriocin, myriocin]
enterocyte Chol (cholesterol) (enterocytes; WT mice, mean ± SD, N=5-7): 16.2 ± 1.2 microg/mg protein | enterocyte PC (phosphatidylcholine) (enterocytes; WT mice, mean ± SD, N=5-7): 27.9 ± 2.3 microg/mg protein | enterocyte SM (sphingomyelin) (enterocytes; WT mice, mean ± SD, N=5-7): 6.2 ± 0.9 microg/mg protein | enterocyte TG (triglycerol) (enterocytes; WT mice, mean ± SD, N=5-7): 11.1 ± 1.9 microg/mg protein | SM levels in enterocytes, in words (enterocytes; [3]): significantly decreases | cellular cholesterol, phosphatidylcholine, or triglyceride levels in enterocytes, in words (enterocytes; [3]): no effect | plasma Chol (cholesterol) ([1]; ApoE KO mice): 350 ± 42 mg/dL | plasma PC (phosphatidylcholine) ([1]; ApoE KO mice): 334 ± 49 mg/dL | plasma SM (sphingomyelin) ([1]; ApoE KO mice): 39 ± 4 mg/dL | plasma TG (triglycerol) ([1]; ApoE KO mice): 89 ± 13 mg/dL | effect on plasma lipids, including SM, PC, and cholesterol levels ([1]; WT mice): no significant effect | plasma Chol (cholesterol) ([1]; WT mice): 95 ± 12 mg/dL | plasma PC (phosphatidylcholine) ([1]; WT mice): 155 ± 31 mg/dL | plasma SM (sphingomyelin) ([1]; WT mice): 22 ± 2 mg/dL | plasma TG (triglycerol) ([1]; WT mice): 71 ± 15 mg/dL | decrease of plasma SM compared with controls ([1]; apoE KO mice, P<0.001): 48% | decrease of plasma cholesterol compared with controls ([1]; apoE KO mice, P<0.01): 37% | ABCG5 mRNA levels (printed ABCG5/G8) (ABCG5 mRNA; liver): no influence | increase of ABCG5 mRNA levels compared with controls (ABCG5 mRNA; WT mice): 52% | increase of ABCG5 mRNA levels compared with controls (ABCG5 mRNA; apoE KO mice): 69% | sensitivity to lysenin-mediated cytolysis vs controls [2]: significantly less sensitivity
